Data reported in patent publication US20090053245A1, “Pharmacokinetics and Efficacy of Anti-Angiogenic Drugs and Drugs Treating Diseases of the Blood” (priority 2007, published 2009).
Blank lines part the entries; values can stand above or below the molecule they belong to.

Experiments:
CYP3a4 = target: T1, CYP3a4 (Homo sapiens, UniProt P08684); assay: Fluorescence-based CYP3a4 assay (Invitrogen VIVID) with or without FKBP; type: in vitro ADME
T1 construct: purchased Invitrogen (Carlsbad, Calif.) P2856

[1] = target: T2, vitamin K epoxide reductase (Mus musculus, UniProt Q9CRC0); assay: Time course of anticoagulant effect (Helena Thromboplastic Reagent MI clotting test); type: in vivo; conditions: mice, 1.5 mg/kg by gavage in 0.5% methylcellulose
T2 construct: clotting time doubles after only about 8 hours for warfarin-SLF dosed mice; from tissue; host or cells: live mice dosed by gavage; clotting time measured on their blood
T2 sequence (Q9CRC0 1-161): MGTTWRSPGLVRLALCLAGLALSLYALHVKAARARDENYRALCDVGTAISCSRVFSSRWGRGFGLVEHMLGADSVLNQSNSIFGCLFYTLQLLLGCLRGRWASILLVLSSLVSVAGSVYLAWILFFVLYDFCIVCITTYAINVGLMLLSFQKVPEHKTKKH
Procedure: Five mice per arm (fifteen animals total) were used for the test. […] The dose was 1.5 mg/kg, administered in 0.5% methylcellulose by gavage. The Helena Thromboplastic Reagent MI test (Helena Laboratories, Beaumont, Tex.) was employed to determine the duration of clotting.

[2] = non-transplant patients; cited from earlier work
[3] = in vivo; cited from earlier work

T1 sequence (P08684 2-503 limits assumed): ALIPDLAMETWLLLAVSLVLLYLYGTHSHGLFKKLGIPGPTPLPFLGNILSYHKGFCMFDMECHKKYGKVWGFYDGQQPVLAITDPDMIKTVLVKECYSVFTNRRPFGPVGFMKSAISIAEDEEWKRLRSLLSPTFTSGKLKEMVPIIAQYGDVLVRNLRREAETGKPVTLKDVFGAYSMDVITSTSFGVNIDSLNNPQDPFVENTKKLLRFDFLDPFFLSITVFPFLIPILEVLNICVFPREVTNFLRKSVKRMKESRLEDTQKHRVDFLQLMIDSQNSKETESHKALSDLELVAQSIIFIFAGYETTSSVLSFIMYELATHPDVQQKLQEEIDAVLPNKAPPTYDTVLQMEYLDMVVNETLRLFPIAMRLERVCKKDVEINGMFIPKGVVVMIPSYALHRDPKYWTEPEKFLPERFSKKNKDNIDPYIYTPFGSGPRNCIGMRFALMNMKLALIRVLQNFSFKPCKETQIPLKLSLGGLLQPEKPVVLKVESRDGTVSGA

protection from degradation by CYP3a4 (CYP3a4; in the presence of human FKBP (recombinant bacterially-expressed protein)): unable to protect
substrate for the enzyme CYP3a4 (CYP3a4; no FKBP added): good substrates
Structure (SMILES): COc1cc(/C=C/C(=O)CC(=O)/C=C/c2ccc(O)c(OC)c2)ccc1O [curcumin]

time after which clotting time doubles [1]: 18 h
Structure (SMILES): CC(=O)CC(c1ccccc1)c1c(O)c2ccccc2oc1=O (centres unmarked) [warfarin]

Structure (SMILES): C=CC[C@@H]1/C=C(\C)C[C@H](C)C[C@H](OC)[C@H]2O[C@@](O)(C(=O)C(=O)N3CCCC[C@H]3C(=O)O[C@H](/C(C)=C/[C@@H]3CC[C@@H](O)[C@H](OC)C3)[C@H](C)[C@@H](O)CC1=O)[C@H](C)C[C@@H]2OC [FK506]
half-life [2]: 21 h
distribution in the blood [3]: 72-98%
